Measurements reported in patent publication US8772495B2, “5-lipoxygenase-activating protein inhibitor” (Panmira Pharmaceuticals, LLC, priority 2008, dated 2014).
Several values for one entry are separate records, joined by “and”; a condition that tells them apart may be missing. Equal values may be shown once. Read-outs that look alike come from different tables or passages of the source.

Experiments:
[1] = Thermodynamic aqueous solubility by HPLC; type: physicochemical; settings: water
Protocol: The suspension was equilibrated at 25° C. for 24 hours then the pH was measured. The suspension was then filtered through a glass fibre C filter into a 96 well plate. […] Quantitation was by HPLC with reference to a standard solution of approximately 0.1 mg.ml^−1 in DMSO. Different volumes of the standard, diluted and undiluted sample solutions were injected.
Analysis was performed on an Agilent HP1100 series system equipped with a diode array detector and using ChemStation software vB.02.01-SR1.

[2] = target: CYP1A2 (Homo sapiens (Human), UniProt P05177); experiment: Extracellular cytochrome P450 inhibition (microsomes); type: in vitro ADME; settings: concentrations up to and exceeding 40 μM
Protocol: Aliquots of this mixture (89 μL) were delivered to each well of a 96-well polypropylene plate which contained an aliquot of inhibitor (1 μL). Final solvent concentrations were 1% (v/v) or less. Incubations were commenced with the addition of 10 μL β-NADPH (10 mM stock) to a final volume of 100 μL. […] Samples were centrifuged, and supernatant was transferred for LC-MS analysis.

[3] = Liquid formulations for oral solutions/suspensions; type: physicochemical
Protocol: Values of pH reported were estimated based on pH indicating strips. […] Accordingly, provided in certain embodiments herein were formulations having a pH above about 9, above about 10 or of about 10. In certain embodiments, the formulation was buffered at a pH of about 10. All formulations prepared were sonicated for about 10 minutes.

[4] = test system: LTB4 in Rat Whole Blood; experiment: Rat whole blood LTB4 inhibition assay; type: cell-based; settings: individual tests 1-5
[5] = target: T1, CYP2C9 (Homo sapiens (Human), UniProt P11712); experiment: Extracellular cytochrome P450 inhibition (microsomes); type: in vitro ADME; settings: concentrations up to and exceeding 40 μM
[6] = Oral administration of liquid formulations to rats; parameters: species or system male Spargue-Dawley rats; settings: Sprague-Dawley, rat, in vivo, solutions of Table 19, male rats
[7] = Single-dose pharmacokinetics in beagle dogs; type: in vivo, female beagle dogs; settings: for Cmax: Oral
[8] = target: CYP3A4 (Homo sapiens (Human), UniProt P08684); experiment: Extracellular cytochrome P450 inhibition (microsomes); type: in vitro ADME; settings: concentrations up to and exceeding 40 μM
[9] = target: CYP2D6 (Homo sapiens (Human), UniProt P10635); experiment: as above; type: in vitro ADME; settings: concentrations up to and exceeding 40 μM
[10] = in vivo, po, 250 mg/kg/day
Protocol: Twenty-four hours following the final drug administration mice were placed into an enclosed Plexiglas chamber and exposed to CO2 for a period of 30-60 seconds or until breathing ceased. They were then removed subject to cervical dislocation and blood taken via a cardiac puncture. Mice were next placed in a supine position and a midline incision made. All organs were inspected and the livers removed by careful dissection. Liver weights were recorded as well as any gross abnormalities.

[11] = target: T1, CYP2C9; experiment: Cellular cytochrome P450 induction in cryopreserved human hepatocytes; settings: tested at 10 μM, diclofenac substrate
[12] = female, beagle, dog, plasma, po, 5 mg/kg, 0.5% Methylcellulose, Fasted
[13] = female, beagle, dog, plasma, po, 5 mg/kg, 0.5% Methylcellulose, Fed
[14] = female, beagle, dog, plasma, po, 6.5 mg/kg, 50 mg Pill, Fasted
[15] = female, beagle, dog, plasma, po, 6.5 mg/kg, 50 mg Pill, Fed

T1 sequence (P11712 whole entry, looked up): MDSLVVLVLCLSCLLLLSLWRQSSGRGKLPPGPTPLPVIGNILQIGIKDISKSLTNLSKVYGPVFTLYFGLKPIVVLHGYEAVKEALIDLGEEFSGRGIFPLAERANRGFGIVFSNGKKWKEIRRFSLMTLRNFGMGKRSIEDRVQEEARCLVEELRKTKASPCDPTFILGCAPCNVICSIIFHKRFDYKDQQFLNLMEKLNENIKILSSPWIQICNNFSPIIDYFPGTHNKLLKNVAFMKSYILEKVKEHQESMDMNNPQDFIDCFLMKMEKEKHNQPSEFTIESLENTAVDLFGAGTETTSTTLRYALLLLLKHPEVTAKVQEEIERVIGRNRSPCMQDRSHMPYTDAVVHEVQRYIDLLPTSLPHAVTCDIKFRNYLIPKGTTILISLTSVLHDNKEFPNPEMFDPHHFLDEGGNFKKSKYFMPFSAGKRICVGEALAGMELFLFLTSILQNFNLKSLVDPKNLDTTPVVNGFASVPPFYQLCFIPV
CYP3A4, sequence (P08684 whole entry, looked up): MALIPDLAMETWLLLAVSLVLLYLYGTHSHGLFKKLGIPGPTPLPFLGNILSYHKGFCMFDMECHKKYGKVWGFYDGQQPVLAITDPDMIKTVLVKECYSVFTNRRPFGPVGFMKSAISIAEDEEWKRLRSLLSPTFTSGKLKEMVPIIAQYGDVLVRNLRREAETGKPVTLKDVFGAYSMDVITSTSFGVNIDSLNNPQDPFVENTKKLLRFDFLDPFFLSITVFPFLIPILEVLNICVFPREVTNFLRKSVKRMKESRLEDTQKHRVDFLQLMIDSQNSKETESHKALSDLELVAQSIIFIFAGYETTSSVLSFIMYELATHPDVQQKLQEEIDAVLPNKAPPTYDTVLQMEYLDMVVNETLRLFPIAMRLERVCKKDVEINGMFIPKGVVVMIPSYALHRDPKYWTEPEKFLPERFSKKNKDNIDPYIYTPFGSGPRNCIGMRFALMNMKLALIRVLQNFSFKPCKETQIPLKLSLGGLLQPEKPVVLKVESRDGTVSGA
CYP1A2, sequence (P05177 whole entry): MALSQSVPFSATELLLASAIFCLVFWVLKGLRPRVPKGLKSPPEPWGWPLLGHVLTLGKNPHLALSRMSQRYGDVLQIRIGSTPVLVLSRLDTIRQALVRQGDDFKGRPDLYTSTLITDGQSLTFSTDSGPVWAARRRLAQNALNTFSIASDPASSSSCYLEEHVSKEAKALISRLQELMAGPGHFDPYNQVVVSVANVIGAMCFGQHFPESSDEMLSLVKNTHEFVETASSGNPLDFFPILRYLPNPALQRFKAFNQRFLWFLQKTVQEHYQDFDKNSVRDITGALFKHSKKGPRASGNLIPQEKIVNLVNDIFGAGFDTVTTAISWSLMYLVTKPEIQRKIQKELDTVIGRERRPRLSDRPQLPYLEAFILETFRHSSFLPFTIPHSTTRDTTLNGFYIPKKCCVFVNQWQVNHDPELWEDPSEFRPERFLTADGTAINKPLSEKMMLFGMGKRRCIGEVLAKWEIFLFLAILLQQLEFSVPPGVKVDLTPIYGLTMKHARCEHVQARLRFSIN
CYP2D6, sequence (P10635 whole entry): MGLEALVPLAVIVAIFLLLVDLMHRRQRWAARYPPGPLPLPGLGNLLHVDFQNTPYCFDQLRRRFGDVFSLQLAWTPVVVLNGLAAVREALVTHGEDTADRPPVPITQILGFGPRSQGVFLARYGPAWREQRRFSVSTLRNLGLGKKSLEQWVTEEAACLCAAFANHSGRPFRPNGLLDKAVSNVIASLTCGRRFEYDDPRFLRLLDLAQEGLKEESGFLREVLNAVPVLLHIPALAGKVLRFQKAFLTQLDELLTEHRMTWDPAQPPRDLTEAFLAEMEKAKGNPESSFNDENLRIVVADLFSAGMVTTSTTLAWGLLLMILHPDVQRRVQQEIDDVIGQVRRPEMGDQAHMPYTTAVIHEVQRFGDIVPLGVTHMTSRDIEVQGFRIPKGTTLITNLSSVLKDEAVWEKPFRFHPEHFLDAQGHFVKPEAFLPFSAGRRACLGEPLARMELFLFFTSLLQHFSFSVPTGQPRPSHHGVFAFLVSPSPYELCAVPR

pH of unfiltered saturated solution ([1]; 25° C.): above 9
solubility at 24 h ([1]; 25 °C, thermodynamic from solid, both batches): > 10000 µg/mL
apparent inhibition [2]: No apparent inhibition
Results (appearance of formulation) ([3]; 0.010 M sodium carbonate buffer, 1% v/v Lutrol and 0.05% splenda, pH 10, ~10 mg/mL): Clear solution
Results (appearance of formulation) ([3]; 0.010 M sodium carbonate buffer, 2% v/v ethanol and 0.05% splenda, pH 10, 10 mg/mL): Clear solution
Results (appearance of formulation) ([3]; 0.010 M sodium carbonate buffer, 5% v/v Ethanol and 0.05% splenda, pH 10, ~10 mg/mL): Some undissolved solid
Results (appearance of formulation) ([3]; 0.010 M sodium carbonate buffer, 5% v/v Simple syrup, pH 10, 10 mg/mL): Some undissolved solid
Results (appearance of formulation) ([3]; 0.010 M sodium carbonate buffer, pH 10, 10 mg/mL): Clear solution
Results (appearance of formulation) ([3]; 0.5% Methylcellulose, 3.33 mg/mL): Suspension
IC50 [4]: 0.302 µM and 0.16 µM and 0.38 µM and 0.212 µM and 0.141 µM
apparent inhibition [5]: No apparent inhibition
Tmax [6]: ≤ 2 h
Cmax ([7]; 0.5% Methylcellulose, 5 mg/kg, Fasted): 12400 ng/mL
reduction in oral bioavailability and dose-adjusted AUC, IR pill compared to oral suspension ([7]; fasted or fed comparator dogs): ~30%
AUC(0-inf) [7, 12]: 67800 ng·h/mL
Tmax [7, 12]: 2 h
bioavailability [7, 12]: 52%
AUC(0-inf) [7, 13]: 24300 ng·h/mL
Tmax [7, 13]: 1.3 h
bioavailability [7, 13]: 19%
Cmax ([7]; female, beagle, dog, plasma, po, 5 mg/kg, 0.5% Methylcellulose, 5 mg/kg, Fed, read-out: Cmax): 3700 ng/mL
AUC(0-inf) [7, 14]: 41000 ng·h/mL
Tmax [7, 14]: 2 h
bioavailability [7, 14]: 24%
AUC(0-inf) [7, 15]: 14400 ng·h/mL
Tmax [7, 15]: 1.7 h
bioavailability [7, 15]: 8.4%
Cmax ([7]; female, beagle, dog, plasma, po, 6.5 mg/kg, 50 mg Pill, 6.5 mg/kg, Fasted, read-out: Cmax): 7600 ng/mL
Cmax ([7]; female, beagle, dog, plasma, po, 6.5 mg/kg, 50 mg Pill, 6.5 mg/kg, Fed, read-out: Cmax): 3200 ng/mL
half-life ([7]; female, beagle, dog, plasma, IV, 4:1 PEG400:Water, 0.67 mg/kg, Fasted): 13 h
apparent inhibition [8]: No apparent inhibition
apparent inhibition [9]: No apparent inhibition
Liver weight ([10]; female, CD-1, mouse, 4 days): 1.2 ± 0.1
liver weight change as compared to vehicle control ([10]; female, CD-1, mouse, 4 days): 5%
CYP2C9 induction [11]: No apparent induction
Structure (SMILES): CCOc1ccc(-c2ccc(Cn3c(CC(C)(C)C(=O)[O-])c(SC(C)(C)C)c4cc(OCc5ccc(C)cn5)ccc43)cc2)cn1.[Na+] [Compound 2, sodium 3-[3-(tert-butylsulfanyl)-1-[4-(6-ethoxy-pyridin-3-yl)benzyl]-5-(5-methyl-pyridin-2-yl-methoxy)-1H-indol-2-yl]-2,2-dimethylpropionate]
Liver weight (% body weight) ([10]; female, CD-1, mouse, 4 days): 4.4 % body weight
necropsy findings ([10]; mouse): no gross abnormalities
